Data from patent publication US20250340532A1, “HETEROCYCLIC COMPOUND CCR4 INHIBITOR AND USER THEREOF” (Xizang Haisco Pharmaceutical Co., Ltd., priority 2022, published 2025).

Legend:
CCR4 = molecular target: T1, CCR4 (Homo sapiens, UniProt P51679); experiment: Calcium flow detected by FLIPR; format: cell-based; settings: CCR4/HEK293 cells, agonist CCL17, Fluo-4 calcium signal
T1 construct: expressed in transfected cells; host or cells: HEK293
T1 sequence (P51679 1-360): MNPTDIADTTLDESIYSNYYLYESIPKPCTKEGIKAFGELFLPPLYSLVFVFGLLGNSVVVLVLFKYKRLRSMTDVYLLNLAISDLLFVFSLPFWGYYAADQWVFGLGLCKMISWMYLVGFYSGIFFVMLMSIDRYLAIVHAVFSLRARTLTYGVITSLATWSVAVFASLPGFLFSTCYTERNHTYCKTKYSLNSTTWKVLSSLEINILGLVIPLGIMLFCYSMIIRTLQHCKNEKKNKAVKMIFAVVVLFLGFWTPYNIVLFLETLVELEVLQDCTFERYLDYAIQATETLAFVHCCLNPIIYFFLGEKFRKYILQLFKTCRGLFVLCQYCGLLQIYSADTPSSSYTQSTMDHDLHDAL
Method: CCR4/HEK293 cells were added to a 384-well cell culture plate (Greiner #781946) at a rate of 20 μL/well (20,000 cells/well) and incubated overnight in a 37° C., 5% CO2 incubator (Incubator, Thermo). On the second day, the 384-well cell culture plate was taken out of the incubator and the culture medium was removed; Then, 20 μL of detection buffer and 20 μL of 2X Fluo-4 Direct™ (Invitrogen, Cat #F10471) were added. Then, compounds were added at 10 μL/well (compounds were subjected to 4-fold serial dilution, and the highest detection concentration was 10 μM), and the cells were incubated in a 37° C., 5% CO2 incubator for 50 min, and then incubated at room temperature for 10 min. The 384-well culture plate was placed in FLIPR ([…]), 10 μL of 6X agonist CCL17 was added by using an automatic loader, and the fluorescence signal was read immediately. The mean and standard error (Mean±SEM) were statistically analyzed using Graphpad Prism software, and the IC50 value was calculated.
The experimental results are shown in Table 3, where A represents IC50<100 nm; B represents 100 nM≤IC50<500 nM, and C represents 500 nM≤IC50.

[1] = Pharmacokinetic test in rats; format: in vivo, SD rats; settings: for AUC / clearance / Vd: male, SD, rat, plasma; for Vd: read-out: Vdss
Method: 1.1 Experimental animals: male SD rats, about 220 g, 6-8 weeks old, 6 rats/compound. Purchased from Chengdu Ddossy Experimental Animals Co., Ltd.
1.2 Experimental design: on the day of the experiment, 36 SD rats were randomly grouped according to their body weights. The animals were fasted with water available for 12 to 14 h one day before the administration and were fed 4 h after the administration.
(§1) Before and after the administration, 0.15 ml of blood was taken from the orbit of the animals under isoflurane anesthesia and placed in an EDTAK2 centrifuge tube. The blood was centrifuged at 5000 rpm and 4° C. for 10 min to collect plasma. The blood collection time points for the intravenous administration group and intragastric administration group were: 0, 5 min, 15 min, 30 min, 1 h, 2 h, 4 h, 6 h, 8 h and 24 h. Before analysis and detection, all samples were stored at −80° C., and a quantitative analysis of samples was performed using LC-MS/MS.

[2] = Pharmacokinetic test in monkeys; format: in vivo, cynomolgus monkeys; settings: for AUC(0-t) / clearance / Vd: male, cynomolgus monkey, plasma; for Vd: read-out: Vdss
Method: Experimental animals: Male cynomolgus monkeys, 3-5 kg, 3-6 years old, 4 monkeys/compound. purchased from Suzhou Xishan Biotechnology Inc.
Experimental method: On the day of the experiment, 8 monkeys were randomly grouped according to their body weights. The animals were fasted with water available for 14 to 18 h one day before the administration, and were fed 4 h after the administration.
Before and after the administration, 1.0 mL of blood samples were drawn from the limb veins and placed in an EDTAK2 centrifuge tube. Centrifugation was carried out at 5000 rpm at 4° C. for 10 min, and the plasma was collected. The blood collection time points for the intravenous group and intragastric administration group were: 0 min, 5 min, 15 min, 30 min, 1 h, 2 h, 4 h, 6 h, 8 h, 10 h, 12 h, 24 h, and 48 h. Before analysis and detection, all samples were stored at −80° C., and a quantitative analysis of samples was performed using LC-MS/MS.

[3] = Pharmacokinetic test in beagle dogs; format: in vivo; settings: for AUC(0-t) / clearance / Vd: male, beagle, dog, plasma; for Vd: read-out: Vdss
Method: Experimental animals: male beagle dogs, about 8-11 kg, 6 beagle dogs/compound, purchased from Beijing Marshall Biotechnology Co., Ltd.
Experimental method: On the day of the experiment, 18 beagle dogs were randomly grouped according to their body weights. The animals were fasted with water available for 12 to 14 h one day before the administration and were fed 4 h after the administration.
Before and after the administration, 1 ml of blood was taken from the jugular veins or limb veins, and placed in an EDTAK2 centrifuge tube. Centrifugation was performed at 5000 rpm at 4° C. for 10 min, and plasma was collected. The blood collection time points for the intravenous group and intragastric administration group were: 0 min, 5 min, 15 min, 30 min, 1 h, 2 h, 4 h, 6 h, 8 h, 10 h, 12 h, 24 h, 48 h, and 72 h. Before analysis and detection, all samples were stored at −80° C. The samples were analyzed quantitatively by LC-MS/MS.

[4] = Pharmacokinetic test in mice; format: in vivo, C57 mice; settings: for AUC(0-t) / clearance / Vd: male, C57, mouse, plasma; for Vd: read-out: Vdss
Method: 1.1 Experimental animals: Male C57 mice, 20-25 g, 6 mice/compound. Purchased from Chengdu Ddossy Experimental Animals Co., Ltd.
1.2 Experimental design: On the day of the experiment, 24 C57 mice were randomly grouped according to their body weight. The animals were fasted with water available for 12 to 14 h one day before the administration and were fed 4 h after the administration.
as §1, with “0.06 mL” for “0.15 ml”, “intravenous” for “intravenous administration”, “0 min,” for “0,”, “7” for “6 h, 8”

Row | SMILES | IC50 (CCR4) [nM] | F ([1]; i.g. 10 mg/kg) [%] | AUC ([1]; iv, i.v. 2.5 mg/kg) [ng·h/mL] | clearance ([1]; iv, i.v. 2.5 mg/kg) [mL/min/kg] | Vd ([1]; iv, i.v. 2.5 mg/kg) [L/kg] | AUC ([1]; po, i.g. 10 mg/kg) [ng·h/mL] | F ([4]; i.g. 10 mg/kg) [%] | AUC(0-t) ([4]; iv, i.v. 2.5 mg/kg) [ng·h/mL] | clearance ([4]; iv, i.v. 2.5 mg/kg) [mL/min/kg] | Vd ([4]; iv, i.v. 2.5 mg/kg) [L/kg] | AUC(0-t) ([4]; po, i.g. 10 mg/kg) [ng·h/mL] | other results
1 | CC(Nc1cc(N2CCC(C3CN(C4CC(C)(C(=O)O)C4)CCO3)CC2)ccc1Cl)c1ccc(Cl)cc1Cl (single isomer, unassigned) [Compound 82 isomer 3] | < 100 |  |  |  |  |  |  |  |  |  |  | F ([3]; i.g. 3 mg/kg): >98%; AUC(0-t) ([3]; iv, i.v. 1 mg/kg): 21100 ± 3840 ng·h/mL; clearance ([3]; iv, i.v. 1 mg/kg): 0.672 ± 0.14 mL/min/kg; Vd ([3]; iv, i.v. 1 mg/kg): 1.04 ± 0.2 L/kg; AUC(0-t) ([3]; po, i.g. 3 mg/kg): 68400 ± 7190 ng·h/mL
2 | C[C@@H](Nc1cc(N2CC(C3CN(C4CC(C)(C(=O)O)C4)CCO3)C2)ccc1Cl)c1ccc(Cl)cc1Cl (single isomer, unassigned) [Compound 83 isomer 1] | < 100 | >98 | 7320 ± 1280 | 5.53 ± 1 | 2.25 ± 0.27 | 37000 ± 2820 | 91.6 ± 12 | 7250 ± 726 | 5.69 ± 0.6 | 1.77 ± 0.069 | 26600 ± 3520 | F ([2]; i.g. 5 mg/kg): 76.8 ± 27%; AUC(0-t) ([2]; iv, i.v. 1 mg/kg): 15800 ± 1740 ng·h/mL; clearance ([2]; iv, i.v. 1 mg/kg): 1.02 ± 0.14 mL/min/kg; Vd ([2]; iv, i.v. 1 mg/kg): 0.754 ± 0.15 L/kg; AUC(0-t) ([2]; po, i.g. 5 mg/kg): 60700 ± 21600 ng·h/mL
3 | Cc1nc(N2CCC(C3CN(C4CC(C)(C(=O)O)C4)CCO3)CC2)nc(NC(C)c2ccc(Cl)cc2Cl)c1Cl (single isomer, unassigned) [Compound 73 isomer 3] | < 100 | 80.3 ± 34 | 4630 ± 1030 | 9.19 ± 2.1 | 1.55 ± 0.091 | 14900 ± 6380 | 90.4 ± 14 | 7400 ± 385 | 5.62 ± 0.29 | 1.04 ± 0.055 | 26800 ± 4110 | F ([3]; i.g. 3 mg/kg): >98%; AUC(0-t) ([3]; iv, i.v. 1 mg/kg): 12100 ± 3170 ng·h/mL; clearance ([3]; iv, i.v. 1 mg/kg): 1.38 ± 0.4 mL/min/kg; Vd ([3]; iv, i.v. 1 mg/kg): 1.2 ± 0.16 L/kg; AUC(0-t) ([3]; po, i.g. 3 mg/kg): 37700 ± 10100 ng·h/mL
4 | Cc1nc(N2CCC(C3CN(CCC(=O)O)CCO3)CC2)nc(NC(C)c2ccc(Cl)cc2Cl)c1Cl (single isomer, unassigned) [Compound 76 isomer 2] | < 100 |  |  |  |  |  | 123 ± 14 | 1790 ± 125 | 23.1 ± 1.7 | 1.44 ± 0.12 | 8840 ± 1010 | 
5 | Cc1nc(N2CC(F)(C3CN(C4CC(C)(C(=O)O)C4)CCO3)C2)nc(N[C@H](C)c2ccc(Cl)cc2Cl)c1Cl (single isomer, unassigned) [Compound 64 isomer 3] | < 100 | 108 ± 21 | 6020 ± 1390 | 6.85 ± 1.2 | 1.38 ± 0.25 | 26100 ± 5150 | 118 ± 4.5 | 4490 ± 361 | 9.26 ± 0.73 | 1.94 ± 0.053 | 21200 ± 815 | 

Now from value to compound, other results behind:

Row | IC50 (CCR4) [nM] | F ([1]; i.g. 10 mg/kg) [%] | AUC ([1]; iv, i.v. 2.5 mg/kg) [ng·h/mL] | clearance ([1]; iv, i.v. 2.5 mg/kg) [mL/min/kg] | Vd ([1]; iv, i.v. 2.5 mg/kg) [L/kg] | AUC ([1]; po, i.g. 10 mg/kg) [ng·h/mL] | F ([4]; i.g. 10 mg/kg) [%] | AUC(0-t) ([4]; iv, i.v. 2.5 mg/kg) [ng·h/mL] | clearance ([4]; iv, i.v. 2.5 mg/kg) [mL/min/kg] | Vd ([4]; iv, i.v. 2.5 mg/kg) [L/kg] | AUC(0-t) ([4]; po, i.g. 10 mg/kg) [ng·h/mL] | SMILES | other results
6 | < 100 | >98 | 4560 ± 638 | 9.22 ± 1.2 | 2.07 ± 0.28 | 28400 ± 7070 |  |  |  |  |  | Cc1nc(N2CC3C(C2)C3C2CN(C3CC(C)(C(=O)O)C3)CCO2)nc(NC(C)c2ccc(Cl)cc2Cl)c1Cl (single isomer, unassigned) [Compound 78 isomer 3] | 
7 | < 100 | 98.7 ± 19 | 6280 ± 402 | 6.61 ± 0.42 | 1.49 ± 0.13 | 24800 ± 4810 |  |  |  |  |  | Cc1nc(N2CC(C3CN(C4CC(C)(C(=O)O)C4)CCO3)C2)nc(NC(C)c2ccc(Cl)cc2Cl)c1Cl (single isomer, unassigned) [Compound 9 isomer 3] | F ([2]; i.g. 5 mg/kg): 72.8 ± 57%; AUC(0-t) ([2]; iv, i.v. 1 mg/kg): 6930 ± 1440 ng·h/mL; clearance ([2]; iv, i.v. 1 mg/kg): 2.44 ± 0.51 mL/min/kg; Vd ([2]; iv, i.v. 1 mg/kg): 0.995 ± 0.088 L/kg; AUC(0-t) ([2]; po, i.g. 5 mg/kg): 25200 ± 19900 ng·h/mL
